For 23 molecules, IC50 results are on record in patent US9956220B2, “Imidazo-pyridazine derivatives as casein kinase 1 δ/ϵ inhibitors” (Bristol-Myers Squibb Company, priority 2014, dated 2018).

In one assay the target is CK1ϵ (Homo sapiens, UniProt P49674). The assay is described as follows: CK1ϵ kinase assay (Caliper LABCHIP electrophoretic separation of fluoresceinated peptide substrate and product). The format is biochemical. The conditions noted are these: 200 pM CK1ϵ, 50 μM ATP, 1.5 μM peptide substrate, 22 hours at room temperature; read-out: CK1ε (IC50). Here is the method:
(§1) CK1ϵ and CK1δ Kinase Assays
(§2) The kinase assay was performed in V-bottom 384-well plates.
(§3) The reaction was incubated at room temperature for 22 hours and terminated by adding 45 μl of 35 mM EDTA to each sample. The reaction mixture was analyzed on the Caliper LABCHIP®3000 (Caliper, Hopkinton, Mass.) by electrophoretic separation of the unphosphorylated substrate and phosphorylated product. […] Compounds were dissolved at 10 mM in dimethylsulfoxide (DMSO) and evaluated at eleven concentrations. IC50 values were derived by non-linear regression analysis.

Another assay deals with CK1δ (Homo sapiens, UniProt P48730). The experiment in a line: CK1δ kinase assay (Caliper LABCHIP electrophoretic separation of fluoresceinated peptide substrate and product). The format is biochemical. The following applies: 200 pM CK1δ, 50 μM ATP, 1.5 μM peptide substrate, 22 hours at room temperature. Here is the method: as §1, §2, §3

Molecules are shown by their SMILES.

Chain of CK1ϵ (P49674 whole entry): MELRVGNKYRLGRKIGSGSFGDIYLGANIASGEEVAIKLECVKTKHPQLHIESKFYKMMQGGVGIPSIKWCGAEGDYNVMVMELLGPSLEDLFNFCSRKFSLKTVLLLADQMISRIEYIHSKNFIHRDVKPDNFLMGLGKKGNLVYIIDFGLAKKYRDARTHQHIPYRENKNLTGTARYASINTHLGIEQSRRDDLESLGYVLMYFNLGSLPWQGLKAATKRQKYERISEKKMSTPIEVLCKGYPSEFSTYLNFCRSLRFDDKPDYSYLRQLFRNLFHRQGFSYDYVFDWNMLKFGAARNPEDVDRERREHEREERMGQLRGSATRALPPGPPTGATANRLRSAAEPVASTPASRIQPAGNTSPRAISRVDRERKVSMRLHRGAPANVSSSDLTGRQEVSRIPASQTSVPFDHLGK
Chain of CK1δ (P48730 whole entry): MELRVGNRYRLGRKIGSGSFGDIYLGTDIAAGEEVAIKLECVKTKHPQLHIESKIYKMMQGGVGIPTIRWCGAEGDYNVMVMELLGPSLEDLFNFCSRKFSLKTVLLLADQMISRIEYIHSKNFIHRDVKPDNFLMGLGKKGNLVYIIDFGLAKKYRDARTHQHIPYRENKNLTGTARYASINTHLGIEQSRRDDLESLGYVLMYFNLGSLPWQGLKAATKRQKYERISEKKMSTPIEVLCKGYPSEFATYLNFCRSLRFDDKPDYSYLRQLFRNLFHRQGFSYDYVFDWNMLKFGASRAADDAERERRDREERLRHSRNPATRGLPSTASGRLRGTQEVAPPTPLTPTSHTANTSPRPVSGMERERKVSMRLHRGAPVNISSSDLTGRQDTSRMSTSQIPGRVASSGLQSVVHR

As to `CC1(NC(=O)N2CCn3nc(-c4ccc(F)cc4)c(-c4ccc5nc(NC(=O)c6ccnc(F)c6)cn5n4)c3C2)CC1` [Example 52, 3-(2-(2-Fluoroisonicotinamido)imidazo[1,2-b]pyridazin-6-yl)-2-(4-fluorophenyl)-N-(1-methylcyclopropyl)-6,7-dihydropyrazolo[1,5-a] pyrazine-5(4H)-carboxamide], the IC50 on CK1ϵ is 7.7 nM; against CK1δ, 0.9 nM.

In the case of `O=C(Nc1cn2nc(-c3c(-c4ccc(F)cc4)nn4c3CN(CCCF)CC4)ccc2n1)c1ccnc(F)c1` [Example 28, 2-Fluoro-N-(6-(2-(4-fluorophenyl)-5-(3-fluoropropyl)-4,5,6,7-tetrahydropyrazolo[1,5-a]pyrazin-3-yl)imidazo[1,2-b]pyridazin-2-yl)isonicotinamide], the IC50 was 2.5 nM at CK1ϵ and 0.2 nM against CK1δ.

Consider `O=C(Nc1cn2nc(-c3c(-c4ccc(F)cc4)noc3C3CCOCC3)ccc2n1)c1ccnc(-c2cccnc2)c1` [Example 71, N-(6-(3-(4-Fluorophenyl)-5-(tetrahydro-2H-pyran-4-yl)isoxazol-4-yl)imidazo[1,2-b]pyridazin-2-yl)-[2,3′-bipyridine]-4-carboxamide], for which the IC50 worked out at 29 nM at CK1ϵ and 2.5 nM against CK1δ.

In the case of `O=C(Nc1cn2nc(-c3c(-c4ccc(F)cc4)nn4c3CN(C(=O)NC3CCCC3)CC4)ccc2n1)c1ccnc(F)c1` [Example 44, N-Cyclopentyl-3-(2-(2-fluoroisonicotinamido)imidazo [1,2-b]pyridazin-6-yl)-2-(4-fluorophenyl)-6,7-dihydropyrazolo[1,5-a]pyrazine-5(4H)-carboxamide], the results for the IC50 at CK1ϵ and at CK1δ were 13.9 nM and 2 nM, respectively.

For `O=C(Nc1cn2nc(-c3c(-c4ccc(F)cc4)nn4c3CNCC4)ccc2n1)c1ccnc(C(F)(F)F)c1` [Example 10, N-(6-(2-(4-Fluorophenyl)-4,5,6,7-tetrahydropyrazolo[1,5-a]pyrazin-3-yl)imidazo[1,2-b]pyridazin-2-yl)-2-(trifluoromethyl)isonicotinamide], the IC50 turned out to be 12.6 nM at CK1ϵ and 2.1 nM at CK1δ.

In the case of `O=C(Nc1cn2nc(-c3c(-c4ccc(F)cc4)nn4c3CN(S(=O)(=O)Cc3ccccc3)CC4)ccc2n1)c1ccnc(F)c1` [Example 40, N-(6-(5-(Benzylsulfonyl)-2-(4-fluorophenyl)-4,5,6,7-tetrahydropyrazolo[1,5-a]pyrazin-3-yl)imidazo[1,2-b]pyridazin-2-yl)-2-fluoroisonicotinamide], the IC50 at CK1ϵ was found to be 10.3 nM; on CK1δ, 2.8 nM.

Turning to `O=C(Nc1cn2nc(-c3c(-c4ccc(F)cc4)nn4c3CCCC4)ccc2n1)c1ccnc(F)c1` [Example 62, 2-Fluoro-N-(6-(2-(4-fluorophenyl)-4,5,6,7-tetrahydropyrazolo[1,5-a]pyridin-3-yl)imidazo[1,2-b]pyridazin-2-yl)isonicotinamide], the IC50 at CK1ϵ is 1.3 nM; on CK1δ it was 0.4 nM.

In the case of `O=C(Nc1cn2nc(-c3c(-c4ccc(F)cc4)nn4c3CCC4)ccc2n1)c1cc(F)nc(F)c1` [Example 66, 2,6-Difluoro-N-(6-(2-(4-fluorophenyl)-5,6-dihydro-4H-pyrrolo[1,2-b]pyrazol-3-yl)imidazo[1,2-b]pyridazin-2-yl)isonicotinamide], the figures for the IC50 at CK1ϵ and against CK1δ were 5.3 nM and 0.7 nM, respectively.

As for `O=C(Nc1cn2nc(-c3c(-c4ccc(F)cc4)nn4c3CN(C(=O)c3ccnc(F)c3)CC4)ccc2n1)c1ccnc(F)c1` [Example 20, 2-Fluoro-N-(6-(5-(2-fluoroisonicotinoyl)-2-(4-fluorophenyl)-4,5,6,7-tetrahydropyrazolo[1,5-a]pyrazin-3-yl)imidazo[1,2-b]pyridazin-2-yl) isonicotinamide], the values for the IC50 on CK1ϵ and against CK1δ were 7 nM and 0.5 nM, respectively.

In the case of `O=C(Nc1cn2nc(-c3c(-c4ccc(F)cc4)nn4c3CNCC4)ccc2n1)c1cc(F)nc(F)c1` [Example 5, 2,6-Difluoro-N-(6-(2-(4-fluorophenyl)-4,5,6,7-tetrahydropyrazolo[1,5-a]pyrazin-3-yl)imidazo[1,2-b]pyridazin-2-yl)isonicotinamide], the IC50 amounted to 4.7 nM on CK1ϵ and 0.4 nM at CK1δ.

`O=C(Nc1cn2nc(-c3c(-c4ccc(F)cc4)nn4c3COCC4)ccc2n1)c1ccnc(-c2cccnc2)c1` [Example 57, N-(6-(2-(4-Fluorophenyl)-6,7-dihydro-4H-pyrazolo[5,1-c][1,4]oxazin-3-yl)imidazo[1,2-b]pyridazin-2-yl)-[2,3′-bipyridine]-4-carboxamide]: the IC50 worked out at 1.7 nM on CK1ϵ and 0.2 nM against CK1δ.

On to `COC(=O)N1CCn2nc(-c3ccc(F)cc3)c(-c3ccc4nc(NC(=O)c5ccnc(F)c5)cn4n3)c2C1` [Example 33, Methyl 3-(2-(2-fluoroisonicotinamido)imidazo[1,2-b]pyridazin-6-yl)-2-(4-fluorophenyl)-6,7-dihydropyrazolo[1,5-a]pyrazine-5(4H)-carboxylate], for which the IC50 at CK1ϵ turned out to be 1.9 nM; against CK1δ, 0.3 nM.

For `O=C(Nc1cn2nc(-c3c(-c4ccc(F)cc4)nn4c3CN(C(=O)c3ccccc3F)CC4)ccc2n1)c1ccnc(F)c1` [Example 23, 2-Fluoro-N-(6-(5-(2-fluorobenzoyl)-2-(4-fluorophenyl)-4,5,6,7-tetrahydropyrazolo[1,5-a]pyrazin-3-yl)imidazo[1,2-b]pyridazin-2-yl) isonicotinamide], the IC50 at CK1ϵ was determined as 0.4 nM; against CK1δ, 0.1 nM.

As for `O=C(Nc1cn2nc(-c3c(-c4ccc(F)cc4)nn4c3CNCC4)ccc2n1)c1ccnc(-c2cccnc2)c1` [Example 6, N-(6-(2-(4-Fluorophenyl)-4,5,6,7-tetrahydropyrazolo[1,5-a]pyrazin-3-yl)imidazo[1,2-b]pyridazin-2-yl)-[2,3′-bipyridine]-4-carboxamide], the IC50 is 2.3 nM on CK1ϵ and 0.3 nM against CK1δ.

Consider `O=C(Nc1cn2nc(-c3c(-c4ccc(F)cc4)nn4c3CN(C(=O)Nc3ccc(C(F)(F)F)cc3)CC4)ccc2n1)c1ccnc(F)c1` [Example 47, 3-(2-(2-Fluoroisonicotinamido)imidazo[1,2-b]pyridazin-6-yl)-2-(4-fluorophenyl)-N-(4-(trifluoromethyl)phenyl)-6,7-dihydropyrazolo[1,5-a]pyrazine-5(4H)-carboxamide], for which the IC50 worked out at 146 nM on CK1ϵ and 12 nM against CK1δ.

On to `O=C(Nc1cn2nc(-c3c(-c4ccc(F)cc4)nn4c3CNCC4)ccc2n1)c1ccnc(F)c1` [Example 1, 2-Fluoro-N-(6-(2-(4-fluorophenyl)-4,5,6,7-tetrahydropyrazolo[1,5-a]pyrazin-3-yl)imidazo[1,2-b]pyridazin-2-yl)isonicotinamide], for which the IC50 at CK1ϵ stood at 3.7 nM; on CK1δ it was 0.5 nM.

For `O=C(Nc1cn2nc(-c3c(-c4ccc(F)cc4)nn4c3CN(C(=O)NC3CCCCC3)CC4)ccc2n1)c1ccnc(F)c1` [Example 43, N-Cyclohexyl-3-(2-(2-fluoroisonicotinamido)imidazo [1,2-b]pyridazin-6-yl)-2-(4-fluorophenyl)-6,7-dihydropyrazolo[1,5-a]pyrazine-5(4H)-carboxamide], the figures for the IC50 on CK1ϵ and on CK1δ were 24 nM and 1.6 nM, respectively.

As to `CN1CCn2nc(-c3ccc(F)cc3)c(-c3ccc4nc(NC(=O)c5ccnc(F)c5)cn4n3)c2C1` [Example 26, 2-Fluoro-N-(6-(2-(4-fluorophenyl)-5-methyl-4,5,6,7-tetrahydropyrazolo [1,5-a]pyrazin-3-yl)imidazo[1,2-b]pyridazin-2-yl)isonicotinamide], the IC50 amounted to 7.3 nM at CK1ϵ and 0.4 nM at CK1δ.

In the case of `O=C(Nc1cn2nc(-c3c(-c4ccc(F)cc4)nn4c3CCCC4)ccc2n1)c1cc(F)nc(F)c1` [Example 64, 2,6-Difluoro-N-(6-(2-(4-fluorophenyl)-4,5,6,7-tetrahydropyrazolo[1,5-a]pyridin-3-yl)imidazo[1,2-b]pyridazin-2-yl) isonicotinamide], the IC50 at CK1ϵ worked out at 3.9 nM; against CK1δ, 0.5 nM.

In the case of `O=C(Nc1cn2nc(-c3c(-c4ccc(F)cc4)nn4c3CN(CC(F)F)CC4)ccc2n1)c1ccnc(F)c1` [Example 32, N-(6-(5-(2,2-Difluoroethyl)-2-(4-fluorophenyl)-4,5,6,7-tetrahydropyrazolo[1,5-a]pyrazin-3-yl)imidazo[1,2-b]pyridazin-2-yl)-2-fluoroisonicotinamide], the IC50 was 1.5 nM on CK1ϵ and 0.3 nM on CK1δ.

Turning to `O=C(Nc1cn2nc(-c3c(-c4ccc(F)cc4)nn4c3CN(C(=O)c3cccc(F)c3)CC4)ccc2n1)c1ccnc(F)c1` [Example 19, 2-Fluoro-N-(6-(5-(3-fluorobenzoyl)-2-(4-fluorophenyl)-4,5,6,7-tetrahydropyrazolo[1,5-a]pyrazin-3-yl)imidazo[1,2-b]pyridazin-2-yl) isonicotinamide], the IC50 came to 2.7 nM on CK1ϵ and 0.2 nM against CK1δ.

As to `O=C(Nc1cn2nc(-c3c(-c4ccc(F)cc4)nn4c3CN(C(=O)Nc3ccncc3)CC4)ccc2n1)c1ccnc(F)c1` [Example 49, 3-(2-(2-Fluoroisonicotinamido)imidazo[1,2-b]pyridazin-6-yl)-2-(4-fluorophenyl)-N-(pyridin-4-yl)-6,7-dihydropyrazolo[1,5-a]pyrazine-5(4H)-carboxamide], the IC50 at CK1ϵ worked out at 7.3 nM; on CK1δ, 0.7 nM.

As to `Cn1cnc(S(=O)(=O)N2CCn3nc(-c4ccc(F)cc4)c(-c4ccc5nc(NC(=O)c6ccnc(F)c6)cn5n4)c3C2)c1` [Example 39, 2-Fluoro-N-(6-(2-(4-fluorophenyl)-5-((1-methyl-1H-imidazol-4-yl)sulfonyl)-4,5,6,7-tetrahydropyrazolo [1,5-a]pyrazin-3-yl)imidazo [1,2-b]pyridazin-2-yl) isonicotinamide], the IC50 on CK1ϵ came out at 4.6 nM; on CK1δ, 0.4 nM.

One may read the IC50 as the concentration that gives 50% inhibition.
